Measurements taken from US10709677B2, “Therapeutic uses of benzylideneguanidine derivatives for the treatment of proteopathies” (InFlectis BioScience, priority 2014, dated 2020).

How the values were obtained:
HeLa cells [1] = experiment: Cytoprotection from ER stress (tunicamycin, WST-8 cell viability); assay type: cell-based; conditions: 6 hour exposure of tunicamycin 5 μg/mL, inhibitors 0.5-10 μM, viability 48 h or 72 h after
Description: Cytoprotection against ER stress can be measured by a suitable assay. For example, cytoprotection can be measured in HeLa cells in which ER stress is elicited by the addition of media containing tunicamycin, a mixture of homologous nucleoside antibiotics that inhibits the UDP-HexNAc: polyprenol-P HexNAc-1-P family of enzymes and is used to induce unfolded protein response. Cell viability can be detected in the presence and absence of inhibitor compounds after a set period of time, by measuring the reduction of WST-8 into formazan using a standard cell viability kit (such as Cell Viability Counting Kit-8 from Dojindo). The person skilled in the art may use other class of tetrazolium compounds such as MTT, MTS, XTT. Cytoprotection from ER stress is measured in terms of the percentage increase in viable cells (relative to control) after ER stress. Alternative cell viability assays may be used such as luminogenic ATP assay. Further details of a suitable assay are set forth in the accompanying Examples section.
HeLa Cells were cultured in Eagle's Minimum Essential Medium (EMEM) supplemented with Glutamine, Sodium Pyruvate, Non-Essential Amino Acids, Penicillin and Streptomycin containing 10% Fœtal Bovine Serum (FBS), at 37° C. in 5% CO2 atmosphere. Cells were plated in 96 well plates at a density of 17,000 cells/mL the day before the treatment. ER stress was elicited by addition of 5 μg/mL tunicamycin (Sigma-Aldrich) together with the phosphatases inhibitors (0.5-10 μM). Media were changed 6 h later with fresh media and the cytoprotection was maintained by the addition of the phosphatases inhibitors (0.5-10 μM). Cell viability was assessed by measuring the reduction of WST-8 into formazan using Cell Counting Kit-8 (Sigma) according to the supplier's recommendation, 48 h or 72 h after tunicamycin treatment.

HeLa cells [2] = experiment: Assessment of translation rates in unstressed cells; assay type: cell-based; conditions: compounds 50 μM for 2.5, 5 and 9 h
Method: Culture medium was replaced by methionine-free DMEM medium (Invitrogen) 30 min before compounds addition. One hour before each time point, 50 μM of Click-iT® AHA (L-azidohomoalanine) (Invitrogen) was added to the culture medium in order to label newly synthesized proteins. At the end of each time point, cells were washed with ice-cold PBS and harvested by Trypsine dissociation (Lonza), then lysed in a 50 mM Tris-HCl buffer containing 1% of SDS (Sigma) and protease and phosphatase inhibitors (Sigma). Protein samples were coupled to alkyne biotin (Invitrogen) using Click-iT® Protein Reaction Buffer Kit (Invitrogen). Samples were denatured at 70° C. for 10 min, resolved on ECL 4-20% precasted gels (GE Healthcare) and transferred to nitrocellulose membranes (GE Healthcare). Alkyne biotin coupled to Click-iT® AHA incorporated to newly synthesized proteins was detected using streptavidin-HRP (Gentex). Revelation was performed by incubation of ECL Prime (GE Healthcare) and read by chemoluminiscence using Fusion Solo 3S (Vilber Lourmat).

Min6 cells = experiment: Protection against accumulation of misfold prone Insulin Akita in Min6 cells; assay type: cell-based; conditions: viability 9 days after treatment
Method: Min6 cells were nucleofected with Insulin^Akita a mutant constructs and seeded in 96 well-plates at 300,000 cells/mL and 24 h later, cells were treated with molecules or left untreated. As a control, cells were nucleofected with non-relevant plasmid. 6 days later, a selective agent was added (G418).
Cell viability was assessed by measuring the reduction of WST-8 into formazan using Cell Counting Kit-8 (Sigma) according to the supplier's recommendation, 9 days after treatment.

Min6 insulinoma cell = experiment: Cytoprotection from ER stress (tunicamycin) in Min6 cell line; assay type: cell-based; conditions: 6 hour exposure to tunicamycin, different concentrations
Method: (§1) Cells were plated in 96 well plates at a density of 0.5·10^6 cells/mL for Min6 cell line, 0.4·10^6 cells/mL for INS1 cell line the day before the treatment.
(§2) ER stress was elicited by addition of 2.5 μg/mL tunicamycin (Sigma Aldrich) together with phosphatases inhibitors.
(§3) Media were changed 6 h later with fresh media and the cytoprotection was maintained by the addition of phosphatases inhibitors.
(§4) Cell viability was assessed by measuring the reduction of WST-8 into formazan using Cell Counting Kit-8 (Sigma) according to the supplier's recommendation, 72 h after tunicamycin treatment.

INS1 insulinoma cell = experiment: Cytoprotection from ER stress (tunicamycin) in INS1 cell line; assay type: cell-based; conditions: 6 hour exposure to tunicamycin, different concentrations
Method: as §1, §2, §3, §4

[3] = system: mouse embryonic fibroblasts lipofected with poly I:C; experiment: In vitro inflammation/infection model: poly I:C induced mouse embryonic fibroblasts; assay type: cell-based; conditions: 25 μM, 6 h, IFN-beta ELISA
Method: After 6 h of culture, eIF2alpha-phosphorylation (eIF2α-P) and PPP1R15A (GADD34) expression was monitored by western blotting, while type-I Interferon (IFN)-beta production was quantified in culture supernatants by ELISA. Control (nt) and poly I:C/DMSO are respectively negative and positive controls.
MEFs were cultured in DMEM, 10% FCS (HyClone, Perbio), 100 units/ml penicillin, 100 μg/ml streptomycin, 2 mM glutamine, 1×MEM non-essential amino acids and 50 μM 2-mercaptoethanol. MEFS were treated for the indicated time with 10 μg/ml poly I:C (InvivoGen) in combination with lipofectamine 2000 (Invitrogen).
Cells were lysed in 1% Triton X-100, 50 mM Hepes, 10 mM NaCl, 2.5 mM MgCl2, 2 mM EDTA, 10% glycerol, supplemented with Complete Mini Protease Inhibitor Cocktail Tablets (Roche). Protein quantification was performed using the BCA Protein Assay (Pierce). […] Rabbit polyclonal antibodies recognizing GADD34 (C-19) were from Santa Cruz Biotechnology and anti-eIF2alpha[pS^52] were from Invitrogen.
IFN-beta quantification in culture supernatant was performed using the Mouse Interferon Beta ELISA kit (PBL Interferon Source) according to manufacturer instructions.

human alpha2A receptor = target: T1, human alpha2A receptor (Homo sapiens, UniProt P08913); experiment: Functional GPCR assay for adrenergic α2A receptor (CellKey detection method); assay type: cell-based; conditions: agonist activity, CHO cells, impedance; EC50>33.3 μM considered no significant alpha-2 adrenergic activity; read-out: Functional adrenergic alpha2 receptor assay EC50
T1 construct: CHO cells endogenously expressing human alpha2A receptor; endogenous in cells; host or cells: CHO cells
T1 sequence (P08913 1-465): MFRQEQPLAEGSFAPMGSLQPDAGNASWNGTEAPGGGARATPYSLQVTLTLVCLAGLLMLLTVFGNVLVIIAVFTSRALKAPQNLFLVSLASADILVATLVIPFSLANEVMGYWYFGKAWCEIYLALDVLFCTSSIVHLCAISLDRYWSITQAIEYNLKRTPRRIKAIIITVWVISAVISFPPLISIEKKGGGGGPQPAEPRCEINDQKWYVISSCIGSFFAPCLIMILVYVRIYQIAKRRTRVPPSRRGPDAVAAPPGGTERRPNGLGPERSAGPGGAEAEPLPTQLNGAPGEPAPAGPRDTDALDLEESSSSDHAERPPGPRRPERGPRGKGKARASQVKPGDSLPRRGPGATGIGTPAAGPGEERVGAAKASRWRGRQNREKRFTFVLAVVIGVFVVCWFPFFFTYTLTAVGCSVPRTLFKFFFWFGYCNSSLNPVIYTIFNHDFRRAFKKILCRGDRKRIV

HeLa cells [4] = conditions: tunicamycin, Tsaytler et al., Science 2011, cited from earlier work; for protection of cells from cytotoxic ER stress: HeLa cells

Structure (SMILES) | Cytoprotection from ER stress compared to guanabenz (HeLa cells [1]) | Translation inhibition in non-stressed cells (HeLa cells [2]) | further results
N=C(N)N/N=C/c1ccccc1Br [Compound 3, 2-(2-bromobenzylidene) hydrazinecarboximidamide] | ++ | no effect | 
COc1ccccc1/C=N/NC(=N)N [Compound 4, 2-(2-methoxybenzylidene) hydrazinecarboximidamide] | + |  | 
N=C(N)N/N=C/c1ccncc1Cl [Compound 6, 2-[(3-chloropyridin-4-yl)methylidene]hydrazinecarboximidamide] | + | no effect | cell death associated with accumulation of misfold prone Insulin Akita (FIG. 8) (Min6 cells): prevent cell death; Min6 insulinoma cell death induced by tunicamycin (FIG. 9) (Min6 insulinoma cell): prevent Min6 insulinoma cell death; INS1 insulinoma cell death induced by tunicamycin (FIG. 10) (INS1 insulinoma cell): prevent INS1 insulinoma cell death; type-I IFN production (FIG. 13) [3]: prevent type-I IFN production
CC(=O)O.N=C(N)N/N=C/c1ccncc1Cl [Compound 7, 2-[(3-chloropyridin-4-yl)methylidene]hydrazinecarboximidamide acetate] | ++ | no effect | EC50 (human alpha2A receptor): > 33300 nM
CC(=O)O.N=C(N)N/N=C/c1c(F)cccc1Cl [Compound 8, 2-(2-chloro-6-fluorobenzylidene)hydrazinecarboximidamide acetate] | ++ | no effect | type-I IFN production (FIG. 13) [3]: prevent type-I IFN production
Cc1ccc(/C=N/NC(=N)N)c(Cl)c1 [Compound 9, 2-(2-chloro-4-methylbenzylidene)hydrazinecarboximidamide] | − |  | 
Cc1ccc(Cl)c(/C=N/NC(=N)N)c1 [Compound 10, 2-(2-chloro-5-methylbenzylidene)hydrazinecarboximidamide] | + |  | 
Cc1cccc(/C=N/NC(=N)N)c1Cl [Compound 11, 2-(2-chloro-3-methylbenzylidene)hydrazinecarboximidamide] | + |  | 
Clc1cccc(Cl)c1N=C1NCCN1 [clonidine] |  |  | protection of cells from cytotoxic ER stress (HeLa cells [4]): Neither the α2-adrenergic receptor agonist clonidine, nor the α2-adrenergic receptor antagonist efaroxan protected cells
CCC1(C2=NCCN2)Cc2ccccc2O1 (stereo not shown) [efaroxan] |  |  | protection of cells from cytotoxic ER stress (HeLa cells [4]): Neither the α2-adrenergic receptor agonist clonidine, nor the α2-adrenergic receptor antagonist efaroxan protected cells
NC(N)=N/N=C/c1c(Cl)cccc1Cl [guanabenz, 2-(2,6-dichlorobenzylidene)hydrazinecarboximidamide] |  |  | protection of cells from cytotoxic ER stress (HeLa cells [4]): doubled the number of cells surviving ER stress; EC50 (HeLa cells [4]; read-out: median effective concentration, survival of HeLa cells exposed to ER stress): ~400 nM
